Laboratory results published in US20240208901A1, “Deuterated 3,3'-Diselenodipropionic Acid (DSePA) and Its Use as an Anticancer or Radioprotective Agent” (Secretary, Department of Atomic Energy, priority 2022, published 2024).

Experiments:
[1] = system: H3122 cells; test: MTT assay, anti-proliferative effect in H3122 cells; assay type: cell-based, human; settings: Homo sapiens, NCI-H3122, 48 h treatment, read-out: IC50 to inhibit cell proliferation
Protocol: (§1) Therefore, D-DSePA was compared with un-deuterated DSePA for its anticancer activity in A549, H1975 and H3122 cell lines which are representative of NSCLC. For this, above cells were treated with the varying concentrations (0.1-100 μM) of DSePA/D-DSePA for 48 h and the cell viability was determined by MTT assay (FIG. 9A-C). The plot of percent (%) cytotoxicity (100-% viability) versus the concentration of DSePA/D-DSePA was used to estimate the half maximum concentration (IC50) of above compounds to inhibit the proliferation of cells. […] Employing these values, the therapeutic index (IC50 in normal lung cell/IC50 in lung cancer cell) of DSePA and D-DSePA in different pairs of normal versus cancerous cells (viz., A549/WI-38, A549/WI-26 VA4, H1975/WI-38, H1975/WI-26 VA4, H3122/WI-38 and H3122/WI-26 VA4) was calculated (Table-3). […]
(§2) MTT Assay—To evaluate the anti-proliferative effect of D-DScPA and DScPA, Cells (˜5×10^3) suspended in 100 μl of complete culture medium were seeded in each well of 96 well plates. […] The percentage (%) cytotoxicity was calculated from the decrease in absorbance at 570 nm of treated groups as compared to that of control group. […] The therapeutic index was calculated by normalizing the IC50 concentration of D-DSePA/DSePA in non-cancerous cells to that in cancerous cells.

[2] = system: WI-26 VA4 cells; test: MTT assay, toxicity in non-cancerous lung fibroblast WI-26 VA4 cells; assay type: cell-based, human; settings: Homo sapiens, WI26VA4, 48 h post treatment, read-out: IC50 for inhibiting the cell proliferation
From the text: as §1, with “For this, above cells were treated with the varying concentrations (0.1-100 μM) of DSePA/D-DSePA for 48 h and the cell viability was determined by MTT assay (FIG. 9A-C).” left out, “cells. […] Similarly, the toxicity of DSePA/D-DSePA was studied in non-cancerous lung fibroblast cells, WI-38 and WI-26 VA4 in the concentration range of 0.1 to 1000 μM at 48 h post treatment by MTT assay (FIG. 9D and 9E).” for “cells.”
as §2

Work on `O=C(O)CC[Se][Se]CCC(=O)O` [DSePA, 3,3′-diselenodipropionic acid] yielded an IC50 [1] of 21.5 ± 1.2 µM and an IC50 [2] of 151 ± 3.3 µM.
